The source of these data is ChEMBL document CHEMBL2429771, “Drug discovery for neglected diseases: molecular target-based and phenotypic approaches” (J Med Chem, 2013).

A short description of experiment [1]: Inhibition of Trypanosoma brucei PTR1 by spectrophotometry. As to conditions: read-out: Ki(app).
The nature of experiment [2]: Inhibition of Leishmania mexicana CRK3/CYC6.
The next experiment has as its target CDK2/Cyclin A2 (Homo sapiens, UniProt P24941). Nature of the experiment: Inhibition of human CDK2/Cyclin A. The class given is protein-complex assay.
For experiment [3], the system named is Trypanosoma brucei. Nature of the experiment: Inhibition of blood stream form of Trypanosoma brucei overexpressing trypanothione synthase after 72 hrs. In kind it is functional, organism-based.
Experiment [4] deals with Trypanosoma brucei. Nature of the experiment: Inhibition of wild type blood stream form of Trypanosoma brucei expressing trypanothione synthase after 72 hrs. In kind it is functional, organism-based.
Experiment [5] concerns Trypanosoma brucei. Nature of the experiment: Inhibition of blood stream form of trypanothione synthase single knockout Trypanosoma brucei after 72 hrs. In kind it is functional, organism-based.
Experiment [6] is described as follows: Inhibition of Trypanosoma brucei trypanothione synthase.

What is called IC50 is the midpoint of a concentration-inhibition curve. For orientation: EC50 means the concentration that produces a half-maximal response. A high value points to a less potent agent.

Consider `Nc1nc2ccccc2[nH]1`, for which, in experiment [1], the Ki was 228 µM.
Regarding `COc1cccc(NC(=O)NC2=CC(=O)CC(C)(C)C2)c1`, the results for the IC50 (in experiment [2]; at CDK2/Cyclin A2) were 40 nM and greater than 100 µM, respectively.
Consider `Cc1cccc(-c2ccc3nc(NC(=O)CCC4CCCC4)nn3c2)c1`, for which the IC50 is less than 5 nM in experiment [2] and greater than 100 µM on CDK2/Cyclin A2.
Regarding `CN(C)CCCNC(=O)Cn1nc(-c2cccc(F)c2)c2ccccc21`, the figures for the half-maximal effective concentration (EC50) in the experiment on Trypanosoma brucei [3], in the experiment on Trypanosoma brucei [4] and with Trypanosoma brucei [5] were 23 µM, 7 µM and 1200 nM, respectively. Besides, in experiment [6], half-maximal inhibition (IC50) was put at 45 nM.
`O=C(Nc1cc(-c2ccc(Cl)cc2)n[nH]1)C1CCCCC1`: the figures for the IC50 (in experiment [2]; against CDK2/Cyclin A2) were 340 nM and greater than 100 µM, respectively.
For `Nc1nc2ccc(Cl)cc2[nH]1`, the Ki in experiment [1] came out at 11 µM.
